The values that follow come from patent US20250268920A1, “USE OF ANDROGEN RECEPTOR-MEDIATED MECHANISMS IN THE TREATMENT OF ACUTE MYELOID LEUKEMIA” (The Penn State Research Foundation, priority 2022, published 2025).

In data set [1] the test system is female AML donor cells. Description: Survival of male recipients transplanted with female AML donors treated in vitro with ARN509. Type of data set: in vivo, mice. The note with it: female AML donors treated in vitro with ARN509 150 nM, 24 h, transplanted into male recipients (FIG. 8J).
Data set [2] has as its system female AML donor cells. Description: In vivo ARN509 alone or combined with finasteride in male mice transplanted with female AML donor cells. The note with it: single ARN509 10 mg/kg/d i.p. for two weeks; male recipients. On the procedure: (FIG. 11A) At one week post 2° transplantation of female AML donors into male recipients, the mice were treated with vehicle (PBS), ARN509 (10 mg/kg/d, i.p. injection), or combination of ARN509 (10 mg/kg/d, i.p. injection) and finasteride (20 mg/kg/d, i.p. injection), for two weeks.

In a further data set the test system is female AML cells. Description: In vitro apoptosis of female AML cells (Annexin V staining). Type of data set: cell-based, mouse. The note with it: Annexin V staining (FIG. 4B, 4C). From the text: (§1) To obtain the results shown in FIG. 1, we isolated bone marrow cells from CD45.1 male mice (FIG. 1A) and CD45.1 female mice (FIG. 1B). Bone marrow cells were applied to hematopoietic stem/progenitor cell isolation using a kit (EasySep™ mouse hematopoietic progenitor cell isolation kit, […], Catalog #19856) followed by red blood cell lysis. Lineage negative (Lin^−) cells were stained with fluorescent antibodies including Sca-1 and c-Kit and then sent to a Beckman Coulter MoFlo Astrios EQ Cell Sorter for sorting Sca-1^+c-Kit^+ cells. These cells were cultured in a CO2 incubator at 37° C. in the presence of MLL-AF9 virus (for AML) for six hours and then injected retro-orbitally into CD45.2 recipient mice. Recipients received sublethal irradiation (475 rads) and 1.5˜3.5×10^5 Lin^−Sca-1^+c-Kit^+ hematopoietic stem cells (HSCs). Mice were monitored for complete cell counts by bleeding retro-orbitally one month post transplantation. Retro-orbital bleeding was performed weekly.
(§2) To obtain the results, isolated female AML cells were treated in vitro with PI3K inhibitors (LY294002 and Wortmannin), Akt inhibitor, MTOR inhibitors (Sapanisertib and Torin1).

The subject of data set [3] is female AML donor cells. In words: Survival of female recipients transplanted with female AML donors treated in vitro with ARN509. It is filed as in vivo, mice. The conditions noted are these: female AML donors treated in vitro with ARN509 150 nM, 24 h, transplanted into female recipients (FIG. 7J).
Data set [4] concerns female AML donor cells. It is filed as in vivo, mice.
Excerpt: as §1
To test the effect of AR inhibition on the outcome of AML, we utilized the AR antagonist, ARN509, to treat female mice transplanted with female AML donor cells. (FIG. 7A) Following one week post-secondary) (2° transplantation of AML cells from female donors into female recipients, the recipient mice were treated with ARN509 (0, 10, 25 mg/kg/d, i.p. injection) daily for two weeks.

Data set [5] relates to female AML donor cells. It is filed as in vivo, mice.
Excerpt: as §1
To address if ARN509 therapy preferentially benefitted AML in female mice, we performed an experiment in which male recipient mice transplanted with female AML donors cells were treated with AR antagonist, ARN509.
(FIG. 8A) Following one week post 2° transplantation of AML cells from female donors into male recipients, we treated the mice with ARN509 (0, 10, 25 mg/kg/d, i.p. injection) for two weeks.
This is another data set of the same source.

For a further data set, the system named is P70 S6K. Description: In vitro treatment of female AML cells: phosphorylation of downstream target P70 S6K. The note with it: isolated female AML cells treated in vitro (FIG. 4A). Type of data set: cell-based, mouse.
Excerpt: as §1, §2

The subject of data set [6] is female AML donor cells. In words: In vivo finasteride treatment of female mice transplanted with female AML donor cells. On the procedure:
To mirror the patient scenario, we performed the experiment on female recipients transplanted with female AML donor cells.
(FIG. 12A) At one week after 2° transplantation of female AML donors to female recipients, we treated the mice with vehicle (PBS) or finasteride (20 mg/kg/d, i.p. injection) for two weeks.

A further data set has as its system male AML donor cells. Description: In vivo finasteride treatment of male mice transplanted with male AML donor cells. The conditions noted are these: for Survival: male AML donors (FIG. 10J).
Excerpt: as §1
(FIG. 10A) Upon 2° transplantation of male AML donors to male recipients, the recipient mice were treated with vehicle (PBS) or finasteride (50 mg/kg/d, i.p. injection) for one week. Then at three weeks post transplantation, mice were euthanized. […] Moreover, to observe the therapeutic effect of finasteride, we treated male recipients transplanted with male AML donors (mirroring the clinical patients) with in vivo finasteride for two weeks or extended it to four weeks (FIG. 10I). […] Thus, the disclosure includes adjusting the treatment period for male (and female) AML patients.

Setting [7] is: finasteride 20 mg/kg/d i.p. for two weeks, female recipients.
Where [8] appears, read: finasteride 50 mg/kg/d i.p. for one week, male recipients.

Where two headings read alike, the source gives them in different places.

As to `CNC(=O)c1ccc(N2C(=S)N(c3cnc(C#N)c(C(F)(F)F)c3)C(=O)C23CCC3)cc1F` [ARN509, Apalutamide], the Survival entry was “some improvement of survival” in the data set with female AML donor cells [1] and “significantly better survival” with female AML donor cells [3]. Further, the Anti-leukemic effect entry in the data set with female AML donor cells [2] is given as “not able to induce significant anti-leukemic effect”. In addition, the “Apoptosis of female AML cells” value with female AML cells was “led to apoptosis of female AML cells”. The “Lin− leukemic cells in the bone marrow” value is “decreased significantly” in the data set with female AML donor cells [4] (25 mg/kg/d ARN509, female recipients (FIG. 7D)) and “decreased significantly” with female AML donor cells [5] (25 mg/kg/d ARN509, male recipients (FIG. 8D)). The “Lin− leukemic cells in the spleen” value with female AML donor cells [4] (25 mg/kg/d ARN509, female recipients (FIG. 7E)) is “decreased significantly”; in the data set with female AML donor cells [5] (25 mg/kg/d ARN509, male recipients (FIG. 8E)), “decreased significantly”. Further, the “LICs (leukemia-initiating cells)” value in the data set with female AML donor cells [4] (25 mg/kg/d ARN509, female recipients (FIG. 7F, 7G)) is “decreased significantly”; with female AML donor cells [5] (25 mg/kg/d ARN509, male recipients (FIG. 8F, 8G)), “decreased significantly”. Also, the “Severity of AML” value is “decreased the severity of AML in a dose-dependent manner” in the data set with female AML donor cells [4] (ARN509 0, 10, 25 mg/kg/d i.p. daily for two weeks from one week post transplantation, female recipients) and “decreased the severity of AML in a dose-dependent manner” in the data set with female AML donor cells [5] (ARN509 0, 10, 25 mg/kg/d i.p. for two weeks from one week post transplantation, male recipients). Moreover, the Leukocytosis result is listed as “improved leukocytosis” in the data set on female AML donor cells [4] (ARN509 0, 10, 25 mg/kg/d i.p., two weeks, female recipients (FIG. 7B)) and “improved leukocytosis” in the data set with female AML donor cells [5] (ARN509 0, 10, 25 mg/kg/d i.p., two weeks, male recipients (FIG. 8B)). Moreover, the Splenomegaly entry in the data set on female AML donor cells [4] (ARN509 0, 10, 25 mg/kg/d i.p., two weeks, female recipients (FIG. 7C)) is listed as “improved”; in the data set on female AML donor cells [5] (ARN509 0, 10, 25 mg/kg/d i.p., two weeks, male recipients (FIG. 8C)), “improved”. For the same compound, the “Platelets in the peripheral blood” value with female AML donor cells [4] (mouse, in vivo) is recorded as “increase”; in the data set on female AML donor cells [5] (mouse, in vivo) it was “increase”. Further, the Side effects result in the data set with female AML donor cells [4] (mouse, in vivo) is listed as “no apparent side effects”; in the data set with female AML donor cells [5] (mouse, in vivo), “no apparent side effects”. Further, the Body weight result with female AML donor cells [5] (mouse, in vivo) is given as “unchanged”.
Take `CCC(=O)N1CCN(c2ccc(-n3c(=O)ccc4cnc5ccc(-c6cnc7ccccc7c6)cc5c43)cc2C(F)(F)F)CC1` [Torin1]: the “Apoptosis of female AML cells” value with female AML cells is “induced apoptosis of female AML cells significantly”. Further, in the data set with P70 S6K, the “Phosphorylation of the downstream target P70 S6K” value is given as “down-regulated”.
Take `CC(C)(C)NC(=O)[C@H]1CC[C@H]2[C@@H]3CC[C@H]4NC(=O)C=C[C@]4(C)[C@H]3CC[C@]12C` [finasteride, Finasteride]: the Leukocytosis entry in the data set with female AML donor cells [6] (finasteride 20 mg/kg/d i.p. for two weeks from one week after transplantation, female recipients (FIG. 12B)) is “significantly improve”; in the data set on male AML donor cells (finasteride 50 mg/kg/d i.p. for one week, male recipients (FIG. 10C)) it was “significantly improved”. Moreover, the “LICs in the bone marrow” value with female AML donor cells [6] (setting [7]) and in the data set with male AML donor cells (setting [8]) was “decreased” throughout. Besides, the “LICs in the spleen” value in the data set with female AML donor cells [6] (setting [7]) and in the data set on male AML donor cells (setting [8]) was “decreased” each time. The “Lin− leukemic cells in the bone marrow” value in the data set on female AML donor cells [6] (setting [7]) and in the data set with male AML donor cells (setting [8]) was “decreased” throughout. Moreover, the “Lin− leukemic cells in the spleen” value with female AML donor cells [6] (setting [7]) and with male AML donor cells (setting [8]) was “decreased” throughout. The Splenomegaly result was “significantly improve” in the data set on female AML donor cells [6] (finasteride 20 mg/kg/d i.p. for two weeks, female recipients (FIG. 12C)) and “significantly improved” with male AML donor cells (finasteride 50 mg/kg/d i.p. for one week, male recipients (FIG. 10D)). Further, the Survival entry in the data set with female AML donor cells [6] (in vivo finasteride treatment, female recipients, female AML donors (FIG. 12K)) is listed as “benefitted the survival”; with male AML donor cells (four-week in vivo finasteride treatment, male recipients), “significantly improved the survival”; with male AML donor cells (two-week in vivo finasteride treatment, male recipients), “partially benefited the survival”. Besides, the “Generation of DHT” value with male AML donor cells (finasteride 50 mg/kg/d i.p. for one week, euthanized three weeks post transplantation (FIG. 10B)) is “decreased generation of DHT”.
